± gives the expanded uncertainty stated by the source.
Tests used:
[1] = 100 kPa, Liquid; for viscosity: Concentric cylinders viscometry; for mass density: Vibrating tube method
[2] = xn = mol fraction of the nth substance listed; conditions: 100 kPa, Liquid, x2 = 0; for viscosity: Concentric cylinders viscometry; for mass density: Vibrating tube method

CCCCn1cc[n+](C)c1.O=[N+]([O-])[O-] [1-butyl-3-methylimidazolium nitrate]
viscosity ([1]; 293.15 K): 223.54 ± 45 mPa·s | mass density ([1]; 293.15 K): 1158.3 ± 1.5 kg/m3 | viscosity ([1]; 298.15 K): 168.97 ± 34 mPa·s | mass density ([1]; 298.15 K): 1155.2 ± 1.5 kg/m3 | viscosity ([1]; 303.15 K): 125.36 ± 25 mPa·s | mass density ([1]; 303.15 K): 1152.3 ± 1.5 kg/m3 | viscosity ([1]; 308.15 K): 96.74 ± 19 mPa·s | mass density ([1]; 308.15 K): 1149.3 ± 1.5 kg/m3 | viscosity ([1]; 313.15 K): 75.12 ± 15 mPa·s | mass density ([1]; 313.15 K): 1146.5 ± 1.5 kg/m3 | viscosity ([1]; 318.15 K): 56.28 ± 11 mPa·s | mass density ([1]; 318.15 K): 1143.8 ± 1.4 kg/m3 | viscosity ([1]; 323.15 K): 45.17 ± 9.1 mPa·s | mass density ([1]; 323.15 K): 1141.2 ± 1.4 kg/m3

CCC(C)O (stereo unspecified) [butan-2-ol] + CCCCn1cc[n+](C)c1.O=[N+]([O-])[O-]
viscosity ([2]; 293.15 K): 3.67 ± 0.73 mPa·s | mass density ([2]; 293.15 K): 806.7 ± 1 kg/m3 | viscosity ([2]; 298.15 K): 3.04 ± 0.61 mPa·s | mass density ([2]; 298.15 K): 802.7 ± 1 kg/m3 | viscosity ([2]; 303.15 K): 2.54 ± 0.51 mPa·s | mass density ([2]; 303.15 K): 798.4 ± 1 kg/m3 | viscosity ([2]; 308.15 K): 2.13 ± 0.43 mPa·s | mass density ([2]; 308.15 K): 794.1 ± 1 kg/m3 | viscosity ([2]; 313.15 K): 1.8 ± 0.36 mPa·s | mass density ([2]; 313.15 K): 789.8 ± 1 kg/m3 | viscosity ([2]; 318.15 K): 1.54 ± 0.31 mPa·s | mass density ([2]; 318.15 K): 785.2 ± 1 kg/m3 | viscosity ([2]; 323.15 K): 1.33 ± 0.27 mPa·s | mass density ([2]; 323.15 K): 780.6 ± 1 kg/m3

CCCC(C)O (stereo unspecified) [pentan-2-ol] + CCCCn1cc[n+](C)c1.O=[N+]([O-])[O-]
viscosity ([2]; 293.15 K): 3.97 ± 0.79 mPa·s | mass density ([2]; 293.15 K): 809.3 ± 1 kg/m3 | viscosity ([2]; 298.15 K): 3.32 ± 0.66 mPa·s | mass density ([2]; 298.15 K): 805.3 ± 1 kg/m3 | viscosity ([2]; 303.15 K): 2.81 ± 0.56 mPa·s | mass density ([2]; 303.15 K): 801.2 ± 1 kg/m3 | viscosity ([2]; 308.15 K): 2.37 ± 0.47 mPa·s | mass density ([2]; 308.15 K): 797 ± 1 kg/m3 | viscosity ([2]; 313.15 K): 1.99 ± 0.4 mPa·s | mass density ([2]; 313.15 K): 792.7 ± 1 kg/m3 | viscosity ([2]; 318.15 K): 1.66 ± 0.33 mPa·s | mass density ([2]; 318.15 K): 788.4 ± 1 kg/m3 | viscosity ([2]; 323.15 K): 1.39 ± 0.28 mPa·s | mass density ([2]; 323.15 K): 784 ± 1 kg/m3

CC(C)O [propan-2-ol] + CCCCn1cc[n+](C)c1.O=[N+]([O-])[O-]
viscosity ([2]; 293.15 K): 2.42 ± 0.48 mPa·s | mass density ([2]; 293.15 K): 785.4 ± 1 kg/m3 | viscosity ([2]; 298.15 K): 2.08 ± 0.42 mPa·s | mass density ([2]; 298.15 K): 781.1 ± 1 kg/m3 | viscosity ([2]; 303.15 K): 1.8 ± 0.36 mPa·s | mass density ([2]; 303.15 K): 776.8 ± 1 kg/m3 | viscosity ([2]; 308.15 K): 1.56 ± 0.31 mPa·s | mass density ([2]; 308.15 K): 772.4 ± 1 kg/m3 | viscosity ([2]; 313.15 K): 1.36 ± 0.27 mPa·s | mass density ([2]; 313.15 K): 768 ± 1 kg/m3 | viscosity ([2]; 318.15 K): 1.19 ± 0.24 mPa·s | mass density ([2]; 318.15 K): 763.4 ± 1 kg/m3 | viscosity ([2]; 323.15 K): 1.05 ± 0.21 mPa·s | mass density ([2]; 323.15 K): 758.8 ± 1 kg/m3

Reference: the NIST ThermoML archive (doi:10.1016/j.jct.2019.04.010)
